In patent US6939850B2, “Altered human interleukin-1β convertase (ICE), NEDD-2, and C. elegans ced-3 polypeptides and uses therefor” (Massachusetts Institute of Technology, priority 1992, dated 2005):
Square brackets hold non-standard residues; d marks the D form. * marks the point of attachment. CH2Cl = ClC*

Experiments:
cervical motoneurons = test: Cervical motoneuron cell death in vivo; set-up: species or system chick; details: for Pyknotic Cervical Motoneurons on E4.5: mean ±SD
Source text: The ability of the ICE inhibitors to block cell death in two classes of neurons whose naturally occurring death appears to be independent of target interaction was also studied. First, motoneurons in the cervical spinal cord undergo PCD between E4 and E5, with maximum levels occurring at E4.5.

lumbar motoneurons = test: Naturally occurring lumbar motoneuron cell death in vivo; set-up: species or system chick; details: mean ±SD; for Pyknotic Lumbar Motoneurons on E8: 15 hours post treatment, single administration of 400 μg on E8; for Healthy Motoneurons (lumbar) on E9 / Pyknotic Motoneurons (lumbar) on E9: 24 hours post treatment
Method: In the first model, embryos were treated with a single dose of an ICE inhibitor or control protease inhibitor on embryonic day 8 (E8), the time of maximum naturally occurring motoneuron cell death (Hamburger et al., J. Morph. 88:49-92 (1951)). Embryos treated in vivo with the peptide inhibitors appeared to develop normally and there were no gross abnormalties. […] 24 hours after treatment there is a similar reduction in the number of pyknotic cells and a significant increase in the number of healthy motoneurons (Table 6B). […] The ability of ICE inhibitors to block the naturally occurring cell death of interdigital cells in the developing limb was also studied. These cells undergo PCD as a means of sculpting the digits in many vertebrates. When embryos were treated with either ICE inhibitor on embryonic days, E6 and E7, there was a substantial reduction in the number of pyknotic cells between the digits of the hindlimb (FIG. 14).
Peptides. Two peptide inhibitors of ICE, Acetyl-Tyr-Val-Ala-Asp-aldehyde (Ac-YVAD-CHO) and Acetyl-Tyr-Val-Ala-Asp-chloromethylketone (Ac-YVAD-CMK) and two control peptide inhibitors, Acetyl-Leu-Leu-Arg-aldehyde (Ac-LLR-CHO; Leupeptin) and n-tosyl-Lys-chloromethyl-ketone (Tos-Lys-CMK) were synthesized by Bachem Biosciences (King of Prussia, Pa.) and shown by thin layer chromatography and HPLC to be greater than 98% pure. […] Methods for administration of peptides to examine effects on naturally occurring motoneuron cell death in vivo. Although cell death of lumbar motoneurons occurs between E6 and E12, the peak period of death (i.e., the greatest number of pyknotic cells) occurs on E8 (Oppenheim et al., J Comp. Neurol. 177:87-112 (1978)). For these experiments, embryos were given a single administration of an agent on E8 0 hr and sacrificed 15 hours later. […] Ac-YVAD-CMK and Tos-Lys-CMK were administered in a solution of DMSO/BSA, whereas Ac-YVAD-CHO and leupeptin (Sigma) were in BSA alone. The solutions (50-100 μl) were dropped onto the highly vascularized chorioallantoic membrane through a window in the shell. The control groups included both DMSO and BSA or vehicle alone. Embryos were killed and staged by the Hamburger-Hamilton series (Hamburger and Hamilton, J. Morph. 88:49-92 (1951)). The thoraco-lumbar spinal cord was dissected, fixed in Camoys or Bouins fixative, processed for paraffin histology, serially sectioned (10-12 μm) and stained with either thionin or hematoxylin and eosin. Pyknotic motoneurons were identified based on criteria previously described (Chu-Wang and Oppenheim, J. Comp. Neurol. 177:33-58 (1978); Clarke and Oppenheim In Methods in Cell Biology Series; Cell Death; eds: Schwartz and Osborne. Academic Press. New York, N.Y. In press.) and were counted in every 10th or 20th section through the entire lumbar enlargement. The total number of pyknotic cells were then estimated by multiplying these values by 10 or 20. All cell counts were performed by individuals blinded with regard to drug treatment of the embryos. Methods for limb bud removal experiments. A unilateral limb bud removal was performed on E2 as described previously (Oppenheim et al., J. Comp. Neurol. 177:87-112 (1978)). Because induced cell death following limb removal begins on E5 (before that there is no difference in the number of motoneurons between the operated or unoperated sides) embryos were given one treatment of Ac-YVAD-CHO (40 μg) or BSA (control) at E5-0 hr and another at E5-12 hours (total peptide administered was 80 μg). Animals were killed at E6-0 hr. Methods were the same as described above except the section thickness was 6-8 μm (see Method for Administration of Peptides, above). Methods for limb bud interdigital regions. […]

ICE = molecular target: T1, ICE (Homo sapiens, UniProt P29466); details: protease activity of ICE; cited from earlier work
T1 sequence (P29466 120-297): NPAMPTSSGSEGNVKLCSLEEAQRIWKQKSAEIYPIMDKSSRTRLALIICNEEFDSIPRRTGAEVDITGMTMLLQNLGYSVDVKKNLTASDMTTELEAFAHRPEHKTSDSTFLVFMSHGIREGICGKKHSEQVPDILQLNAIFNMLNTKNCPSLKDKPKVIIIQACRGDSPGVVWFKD
T1 sequence (P29466 317-404): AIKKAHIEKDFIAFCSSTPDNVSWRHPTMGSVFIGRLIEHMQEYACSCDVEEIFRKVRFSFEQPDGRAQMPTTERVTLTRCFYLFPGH

[1] = system: undifferentiated neurons and precursor cells in the neural tube; test: Cell death in the early neural tube in vivo; set-up: species or system chick
chick spinal motoneurons = test: Motoneuron culture deprived of muscle extract, survival; assay type: cell-based; details: without muscle extract, treated between 14 and 24 hours, counted after 3 days
Source text: A tissue culture model system that allows isolation of a relatively pure population of motoneurons whose survival is dependent on muscle extract, a potent source of target-derived trophic support, was used to test the ability of peptide inhibitors of ICE to block motoneuron cell death (Milligan et al., J Neurobiology 25:1005-1016 (1994) and Block-Gallego et al., Development. 111:221-232 (1991)). The death of motoneurons deprived of trophic support in vitro requires new gene expression and occurs by apoptosis (Milligan et al., J. Neurobiology 25:1005-1016 (1994)). Motoneurons deprived of trophic support at the time of plating become irreversibly committed to undergo cell death after 16-18 hours (Milligan et al., J. Neurobiology 25:1005-1016 (1994)). […] When motoneurons are treated with peptide inhibitors in the absence of muscle extract for three days and subsequently supplemented on day three with muscle extract, they continue to survive, and by six days appear as healthy and differentiated as the motoneurons that were continuously supplied with muscle extract (FIGS. 12A, 12B, 15G). Thus, motoneurons rescued for 3 days by ICE inhibitors remain capable of responding to trophic factors present in muscle extract.
Methods for motoneuron cultures. […]

Molecule | Pyknotic Cervical Motoneurons on E4.5 (cervical motoneurons) | Pyknotic Lumbar Motoneurons on E8 (lumbar motoneurons) | Healthy Motoneurons (lumbar) on E9 (lumbar motoneurons) | Pyknotic Motoneurons (lumbar) on E9 (lumbar motoneurons) | Ki (ICE) [nM] | survival promoting effects on cervical motoneurons (cervical motoneurons; compared to control or Ac-LLR-CHO treated animals) | survival promoting effects on floorplate or dorsal spinal cord cells ([1]; compared to control animals) | Pyknotic Cells in the Early Neural Tube, Dorsal Spinal Cord ([1]; mean ±SD) | Pyknotic Cells in the Early Neural Tube, Floor Plate ([1]; mean ±SD) | motoneuron death (chick spinal motoneurons)
CC(=O)N[C@@H](CC(C)C)C(=O)N[C@@H](CC(C)C)C(=O)N[C@H](C=O)CCCNC(=N)N [Leupeptin, Acetyl-Leu-Leu-Arg-aldehyde] | 32.5 ± 7.9 | 310 ± 40 | 14,117 ± 971 | 297 ± 51 |  |  |  |  |  | 
Cc1ccc(S(=O)(=O)NC(CCCCN)C(=O)CCl)cc1 (stereo not drawn) [Tos-Lys-CMK, n-tosyl-Lys-chloromethyl-ketone] |  | 285 ± 31 | 13,257 ± 773 | 345 ± 39 |  |  |  |  |  | 
Ac-Tyr-Val-Lys-Asp-CHO (Ac-YVKD-aldehyde; SMILES CC(=O)N[C@@H](Cc1ccc(O)cc1)C(=O)N[C@H](C(=O)N[C@@H](CCCCN)C(=O)N[C@H](C=O)CC(=O)O)C(C)C) [Inhibitor D] |  |  |  |  | 3 |  |  |  |  | 
Ac-Y[dA]AD-aldehyde [Inhibitor C] |  |  |  |  | 1500 |  |  |  |  | 
Acetyl-Tyr-Val-Ala-Asp-chloromethylketone (Ac-YVAD-CH2Cl) [Ac-YVAD-CMK] | 26.7 ± 2.2 | 216 ± 27 | 16,231 ± 755 | 200 ± 33 |  | no survival promoting effects | no survival promoting effects | 1.372 ± 0.235 | 0.872 ± 0.201 | inhibitory effects on motoneuron death
